Converted amounts (≈) assume the structure as drawn.
Experiments:
[1] = tested on: Streptococcus mutans (ATCC33402); experiment: Microtitre plate assay, IC90 for bacterial growth; format: cell-based; conditions: for IC90 SMU 33402: 90% inhibitory concentration for bacterial growth
Experimental: (§1) The bacteria used in this study were grown overnight in flasks containing 100 ml Mueller-Hinton Broth (Becton Dickinson—cat. no. 275730) in sterile de-ionized water, with shaking, at 37° C. Stocks (0.5 ml/tube) were stored at 70° C. until use. Bacteria titrations were performed in microtiter plates and colony forming units (CFUs) were determined. In general, an inoculum level of approximately 100 CFUs was used for susceptibility testing.
(§2) Anti bacterial Susceptibility Testing: IC90 Determination
(§3) Flat-bottom, sterile 96-well plastic microtiter plates were filled with 180 μl of sterile deionized water, supplemented with 0.25% BSA. Subsequently, stock solutions (7.8× final test concentration) of compounds were added in 45 μl volumes in column 2. Serial five-fold dilutions (45 μl in 180 μl) were made directly in the microtiter plates from column 2 to reach column 11. Untreated control samples with (column 1) and without (column 12) inoculum were included in each microtiter plate. Depending on the bacteria type, approximately 10 to 60 CFU per well of bacteria inoculum (100 TCID50), in a volume of 100 μl in 2.8× Mueller-Hinton broth medium, was added to the rows A to H, except column 12. The same volume of broth medium without inoculum was added to column 12 in row A to H. The cultures were incubated at 37° C. for 24 hours under a normal atmosphere (incubator with open air valve and continuous ventilation). At the end of incubation, one day after inoculation, the bacterial growth was quantitated fluorometrically. Therefore resazurin (0.6 mg/ml) was added in a volume of 20 μl to all wells 3 hours after inoculation, and the plates were re-incubated overnight. A change in colour from blue to pink indicated the growth of bacteria. The fluorescence was read in a computer-controlled fluorometer (Cytofluor Biosearch) at an excitation wavelength of 530 nm and an emission wavelength of 590 nm. The % growth inhibition achieved by the compounds was calculated according to standard methods. The IC90 (expressed in μg/ml) was defined as the 90% inhibitory concentration for bacterial growth.

[2] = tested on: Staphylococcus aureus (ATCC29213); experiment: Microtitre plate assay, IC90 for bacterial growth; format: cell-based; conditions: 90% inhibitory concentration for bacterial growth, 24 hours at 37° C., resazurin; for IC90: Staphylococcus aureus, ATCC29213, 24 h, read-out: IC90 STA 29213
Experimental: as §1, §2, §3

[3] = tested on: methicilline resistant Staphylococcus aureus (MRSA) (a clinical isolate from the University of Antwerp); experiment: Microtitre plate assay, IC90 for bacterial growth; format: cell-based; conditions: 90% inhibitory concentration for bacterial growth; for IC90: Staphylococcus aureus, MRSA, read-out: IC90 STA RMETHIC
Experimental: as §1, §2, §3

[4] = tested on: Pseudomonas aeruginosa (ATCC27853); experiment: Microtitre plate assay, IC90 for bacterial growth; format: cell-based; conditions: for IC90 PAE 27853: 90% inhibitory concentration for bacterial growth; for IC90: Pseudomonas aeruginosa, ATCC27853, 90% inhibitory concentration for bacterial growth, read-out: IC90 PAE 27853
Experimental: as §1, §2, §3

[5] = tested on: Staphylococcus aureus (ATCC25923); experiment: Microtitre plate assay, IC90 for bacterial growth; format: cell-based; conditions: 90% inhibitory concentration for bacterial growth
Experimental: as §1, §2, §3

[6] = tested on: Listeria monocytogenes (ATCC49594); experiment: Microtitre plate assay, IC90 for bacterial growth; format: cell-based; conditions: for IC90 LMO 49594: 90% inhibitory concentration for bacterial growth
Experimental: as §1, §2, §3

[7] = tested on: Streptococcus pyogens (ATCC8668); experiment: Microtitre plate assay, IC90 for bacterial growth; format: cell-based; conditions: for IC90 SPY 8668: 90% inhibitory concentration for bacterial growth; for IC90: Streptococcus, ATCC8668, 90% inhibitory concentration for bacterial growth, read-out: IC90 SPY 8668
Experimental: as §1, §2, §3

[8] = tested on: Streptococcus pneumoniae (ATCC6305); experiment: Microtitre plate assay, IC90 for bacterial growth; format: cell-based; conditions: for IC90 SPN 6305: 90% inhibitory concentration for bacterial growth; for IC90: Streptococcus pneumoniae, ATCC6305, 90% inhibitory concentration for bacterial growth, read-out: IC90 SPN 6305
Experimental: as §1, §2, §3

[9] = tested on: Bacillus subtilis (ATCC43639); experiment: Microtitre plate assay, IC90 for bacterial growth; format: cell-based; conditions: 90% inhibitory concentration for bacterial growth
Experimental: as §1, §2, §3

[10] = tested on: Enterococcus faecalis (ATCC29212); experiment: Microtitre plate assay, IC90 for bacterial growth; format: cell-based; conditions: for IC90 EFA 29212: 90% inhibitory concentration for bacterial growth; for IC90: Enterococcus faecalis, ATCC29212, 90% inhibitory concentration for bacterial growth, read-out: IC90 EFA 29212
Experimental: as §1, §2, §3

Row | Compound | IC90 SMU 33402 [1] | IC90 STA 29213 [2] | IC90 PAE 27853 [4] | IC90 STA 25923 [5] | IC90 LMO 49594 [6] | IC90 SPY 8668 [7] | IC90 SPN 6305 [8] | IC90 BSU 43639 [9] | IC90 EFA 29212 [10] | IC90 ([1]; Streptococcus mutans, ATCC33402, 90% inhibitory concentration for bacterial growth, read-out: IC90 SMU 33402) | IC90 ([6]; Listeria monocytogenes, ATCC49594, 90% inhibitory concentration for bacterial growth, read-out: IC90 LMO 49594) | IC90 [2] | IC90 [4] | IC90 [7] | IC90 [8] | IC90 [10] | melting point | IC90 STA RMETHIC [3] | IC90 [3]
1 | COc1ccc2nc(OC)c(C(c3ccccc3)C3(c4cccc5ccccc45)CCN(C)CO3)cc2c1 (single isomer, unassigned) [Compound 10] | 12.7 µg/mL (≈ 25.2 µM) | 12.7 µg/mL (≈ 25.2 µM) | 12.7 µg/mL (≈ 25.2 µM) | 12.7 µg/mL (≈ 25.2 µM) | 10.1 µg/mL (≈ 20 µM) | 10.1 µg/mL (≈ 20 µM) | 1.1 µg/mL (≈ 2.18 µM) | 2.5 µg/mL (≈ 4.95 µM) | 12.7 µg/mL (≈ 25.2 µM) |  |  |  |  |  |  |  |  | 50.5 µg/mL (≈ 100 µM) | 
2 | COc1nc2ccc(C)cc2cc1C(c1ccccc1)C1(c2cccc3ccccc23)CCN(C)CO1 (single isomer, unassigned) [Compound 11] | 48.9 µg/mL (≈ 100 µM) | 48.9 µg/mL (≈ 100 µM) | 48.9 µg/mL (≈ 100 µM) | 48.9 µg/mL (≈ 100 µM) | 48.9 µg/mL (≈ 100 µM) | 19.5 µg/mL (≈ 39.9 µM) | 4.9 µg/mL (≈ 10 µM) | 48.9 µg/mL (≈ 100 µM) | 48.9 µg/mL (≈ 100 µM) |  |  |  |  |  |  |  |  | 48.9 µg/mL (≈ 100 µM) | 
3 | COc1nc2ccc(-c3ccco3)cc2cc1C(c1ccccc1)C1(c2cccc3ccccc23)CCN(C)CO1 (single isomer, unassigned) [Compound 12] |  | 13.6 µg/mL (≈ 25.2 µM) | 13.6 µg/mL (≈ 25.2 µM) | 13.6 µg/mL (≈ 25.2 µM) |  | 10.8 µg/mL (≈ 20 µM) | 12.1 µg/mL (≈ 22.4 µM) |  | 13.6 µg/mL (≈ 25.2 µM) | 10.8 µg/mL (≈ 20 µM) | 13.6 µg/mL (≈ 25.2 µM) |  |  |  |  |  |  | 13.6 µg/mL (≈ 25.2 µM) | 
4 | COc1nc2ccc(Br)cc2cc1C(c1ccc(Cl)cc1)C1(c2cccc3ccccc23)CCN(C)CO1 (single isomer, unassigned) [Compound 13] |  |  |  |  |  |  |  |  |  |  |  | 14.8 µg/mL (≈ 25.2 µM) | 14.8 µg/mL (≈ 25.2 µM) | 14.8 µg/mL (≈ 25.2 µM) | 13.2 µg/mL (≈ 22.5 µM) | 14.8 µg/mL (≈ 25.2 µM) |  |  | 
5 | COc1nc2ccc(Br)cc2cc1C(c1ccccc1)C1(c2cccc3ccccc23)CC[N+](C)(C)CO1.[I-] (single isomer, unassigned) [Compound 17] |  | 1.8 µg/mL | 2.0 µg/mL |  |  | 1.8 µg/mL | 1.8 µg/mL |  | 1.8 µg/mL |  |  |  |  |  |  |  | 245 °C | 2.3 µg/mL | 

Continued, in another order:

Row | IC90 SMU 33402 [1] | IC90 STA 29213 [2] | IC90 PAE 27853 [4] | IC90 STA 25923 [5] | IC90 LMO 49594 [6] | IC90 SPY 8668 [7] | IC90 SPN 6305 [8] | IC90 BSU 43639 [9] | IC90 EFA 29212 [10] | IC90 ([1]; Streptococcus mutans, ATCC33402, 90% inhibitory concentration for bacterial growth, read-out: IC90 SMU 33402) | IC90 ([6]; Listeria monocytogenes, ATCC49594, 90% inhibitory concentration for bacterial growth, read-out: IC90 LMO 49594) | IC90 [2] | IC90 [4] | IC90 [7] | IC90 [8] | IC90 [10] | melting point | Compound | IC90 STA RMETHIC [3] | IC90 [3]
6 |  |  |  |  |  |  |  |  |  |  |  | 2.3 µg/mL | 2 µg/mL | 1.8 µg/mL | 1.8 µg/mL | 1.8 µg/mL | 228 °C | COc1nc2ccc(Br)cc2cc1C(c1ccccc1)C1(c2cccc3ccccc23)CC[N+](C)(C)CO1.[I-] (single isomer, unassigned) [Compound 18] |  | 2.3 µg/mL
7 |  |  |  |  |  |  | 0.5 µg/mL |  |  |  |  | 0.4 µg/mL | 3.7 µg/mL | 1.8 µg/mL |  | 1.8 µg/mL | 236 °C | CC[N+]1(C)CCC(c2cccc3ccccc23)(C(c2ccccc2)c2cc3cc(Br)ccc3nc2OC)OC1.[I-] (single isomer, unassigned) [Compound 19] |  | 2.3 µg/mL
8 |  | 0.5 µg/mL | 4.6 µg/mL |  |  | 2.1 µg/mL | 1.8 µg/mL |  | 1.8 µg/mL |  |  |  |  |  |  |  | 215 °C | CC[N+]1(C)CCC(c2cccc3ccccc23)(C(c2ccccc2)c2cc3cc(Br)ccc3nc2OC)OC1.[I-] (single isomer, unassigned) [Compound 20] | 2.3 µg/mL | 
9 |  | 14.8 µg/mL (≈ 25.2 µM) | 14.8 µg/mL (≈ 25.2 µM) |  |  | 14.8 µg/mL (≈ 25.2 µM) | 14.8 µg/mL (≈ 25.2 µM) |  | 14.8 µg/mL (≈ 25.2 µM) |  |  |  |  |  |  |  | 201 °C | COc1nc2ccc(Br)cc2cc1C(c1ccc(Cl)cc1)C1(c2cccc3ccccc23)CCN(C)CO1 (single isomer, unassigned) [Compound 21] |  | 

Reference: patent US8691800B2, “Quinoline derivatives as antibacterial agents” (Janssen Pharmaceutica N.V., priority 2005, dated 2014)
